The source made the active and inactive calls.
Key:
[1] = A cytotoxicity screen of small molecule inhibitors of the PhoP region in Salmonella typhi identified in the primary screen. [Related pubchem assays: 1850, 1864, 1985 ]; format: functional
[2] = target: Luciferin 4-monooxygenase (Photinus pyralis, UniProt P08659); assay: Counter Screen for Luciferase-based Assay Positives. [Related pubchem assays: 620, 618, 411 ]
HT-1080 = assay: cytotoxicity in HT1080 fibrosarcoma cells, cell-based, fluorescence readout (AID 620); format: functional; conditions: Homo sapiens
[3] = cytotoxicity toward NIH3T3 fibroblasts, dose response, counter-screen, cell-based, ATP luminescence, mouse fibroblasts (AID 2010); format: functional;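 note: cells exposed to compound for about 90 hours before reading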
[4] = inhibitors of intracellular T. cruzi replication, confirmation, NIH3T3 host cells, beta-gal luminescence (AID 2044); format: functional, cell-based;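 note: intracellular parasites grown in NIH/3T3 mouse fibroblasts as host cells; luminescent beta-galactosidase reporter signal from transgenic T. cruzi replicating inside host cells; inhibitors lower the luminescence signal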
Cytochrome P450 3A4 = Cytochrome P450 3A4 (Homo sapiens, UniProt P08684); conditions: Potency;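 note: confirmatory qHTS run detecting inhibitors and substrates of CYP3A4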
[5] = target: T1, Short transient receptor potential channel 4 (Mus musculus, UniProt Q9QUQ5); assay: mouse TRPC4 channel activators, dose response, cell-based, HEK293 TRPC4/mu-opioid, Fluo-4 calcium (AID 434937); format: functional
T1 sequence (Q9QUQ5 whole entry): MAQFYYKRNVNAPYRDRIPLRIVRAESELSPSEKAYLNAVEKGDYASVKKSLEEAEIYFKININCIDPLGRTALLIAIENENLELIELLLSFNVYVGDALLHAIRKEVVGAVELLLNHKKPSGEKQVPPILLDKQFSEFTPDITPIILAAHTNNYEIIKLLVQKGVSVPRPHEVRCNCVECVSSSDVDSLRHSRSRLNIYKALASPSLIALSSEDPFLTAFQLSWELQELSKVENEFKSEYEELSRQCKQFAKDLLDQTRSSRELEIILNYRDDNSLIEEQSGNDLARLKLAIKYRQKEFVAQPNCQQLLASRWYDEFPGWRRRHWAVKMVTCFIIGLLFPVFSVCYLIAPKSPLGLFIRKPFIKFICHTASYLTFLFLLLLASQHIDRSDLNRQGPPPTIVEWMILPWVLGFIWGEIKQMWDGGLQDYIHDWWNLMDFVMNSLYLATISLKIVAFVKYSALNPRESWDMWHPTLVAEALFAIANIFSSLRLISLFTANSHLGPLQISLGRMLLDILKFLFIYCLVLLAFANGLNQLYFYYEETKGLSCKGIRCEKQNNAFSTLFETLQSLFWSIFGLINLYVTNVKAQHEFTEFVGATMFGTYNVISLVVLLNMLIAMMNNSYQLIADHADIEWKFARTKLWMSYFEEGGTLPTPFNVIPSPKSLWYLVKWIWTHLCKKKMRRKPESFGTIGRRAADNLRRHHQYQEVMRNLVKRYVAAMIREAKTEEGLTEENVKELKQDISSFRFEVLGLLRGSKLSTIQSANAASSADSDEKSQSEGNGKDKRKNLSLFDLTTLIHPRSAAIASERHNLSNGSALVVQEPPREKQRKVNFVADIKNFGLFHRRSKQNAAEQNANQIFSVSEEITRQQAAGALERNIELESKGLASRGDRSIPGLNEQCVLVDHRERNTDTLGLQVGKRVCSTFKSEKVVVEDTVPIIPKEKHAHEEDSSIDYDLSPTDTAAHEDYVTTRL

[6] = target: T1, Short transient receptor potential channel 4; assay: mouse TRPC4 channel inhibitors, dose response, cell-based, HEK293 TRPC4/mu-opioid, Fluo-4 calcium (AID 434942); format: functional;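 note: potency of inhibitors blocking the TRPC4 calcium response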
[7] = target: Glucose-6-phosphate 1-dehydrogenase (Homo sapiens, UniProt P11413); assay: human G6PD enzyme inhibitors, dose response, selectivity assay for P. falciparum G6PD inhibitor project, biochemical, fluorescence (AID 504792); format: functional
[8] = target: Glyceraldehyde-3-phosphate dehydrogenase (Homo sapiens, UniProt P04406)
[9] = Luminescence Cell-Based Dose Response HTS to Identify Inhibitors of 5'UTR Stem-Loop Driven Prion Protein mRNA Translation in H4 Neuroglioblastoma Cells. [Related pubchem assays: 1827 (Project Summary), 1813 (Primary HTS)]; format: functional
HEK293 = assay: inhibitors of LMP1-driven NF-kB reporter, dose response, cell-based, HEK293, luciferase, cherry-pick (AID 588343); format: functional; conditions: Homo sapiens
[10] = inhibitors of SNCA 5'UTR-driven reporter translation, confirmation, H4 neuroglioma cells, luminescence (AID 1988); format: functional, cell-based
[11] = inhibitors of firefly luciferase expression or activity, dose response, H4 neuroglioma cells, luminescence (AID 1990); format: functional, cell-based
Prothrombin = Prothrombin (Homo sapiens, UniProt P00734); assay: Thrombin 1536 HTS Dose Response Confirmation. [Related pubchem assays: 1046 (Thrombin 1536 HTS; hits were confirmed in this assay)]; format: functional
Coagulation factor XII = target: T2, Coagulation factor XII (Homo sapiens, UniProt P00748); format: functional;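 note: activated factor XIIa alpha cleaving a fluorogenic AMC peptide substrate; inhibitor potency from loss of enzyme activity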
T2 sequence (P00748 whole entry): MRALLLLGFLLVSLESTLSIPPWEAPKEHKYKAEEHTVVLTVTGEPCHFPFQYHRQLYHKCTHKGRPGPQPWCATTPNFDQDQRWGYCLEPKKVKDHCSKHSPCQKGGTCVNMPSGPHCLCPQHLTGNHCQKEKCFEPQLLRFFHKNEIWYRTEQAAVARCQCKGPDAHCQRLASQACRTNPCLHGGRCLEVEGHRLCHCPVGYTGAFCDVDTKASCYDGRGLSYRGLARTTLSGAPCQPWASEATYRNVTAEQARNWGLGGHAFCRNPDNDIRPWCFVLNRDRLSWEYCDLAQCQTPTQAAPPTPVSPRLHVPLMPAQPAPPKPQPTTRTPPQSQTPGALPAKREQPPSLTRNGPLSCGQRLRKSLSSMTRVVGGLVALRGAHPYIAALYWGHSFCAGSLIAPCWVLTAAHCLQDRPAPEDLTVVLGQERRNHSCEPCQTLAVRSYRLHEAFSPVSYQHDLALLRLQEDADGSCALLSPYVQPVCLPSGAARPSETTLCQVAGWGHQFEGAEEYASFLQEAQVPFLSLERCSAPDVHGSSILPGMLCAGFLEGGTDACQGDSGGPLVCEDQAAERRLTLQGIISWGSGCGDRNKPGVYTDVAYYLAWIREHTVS

Sequence of Cytochrome P450 3A4 (P08684 whole entry): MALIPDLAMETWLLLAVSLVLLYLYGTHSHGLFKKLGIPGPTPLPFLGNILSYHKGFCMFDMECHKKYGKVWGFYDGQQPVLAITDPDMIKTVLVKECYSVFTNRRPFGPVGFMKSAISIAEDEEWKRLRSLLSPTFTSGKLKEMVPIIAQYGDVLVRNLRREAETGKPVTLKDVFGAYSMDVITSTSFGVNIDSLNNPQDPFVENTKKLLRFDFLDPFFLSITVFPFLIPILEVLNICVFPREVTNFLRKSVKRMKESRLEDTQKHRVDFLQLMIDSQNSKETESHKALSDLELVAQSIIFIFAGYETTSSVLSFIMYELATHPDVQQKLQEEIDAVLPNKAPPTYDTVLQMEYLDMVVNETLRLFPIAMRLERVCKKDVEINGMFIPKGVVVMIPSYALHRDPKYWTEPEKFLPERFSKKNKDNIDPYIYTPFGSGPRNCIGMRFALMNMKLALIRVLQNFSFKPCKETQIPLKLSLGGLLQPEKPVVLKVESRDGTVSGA
Sequence of Luciferin 4-monooxygenase (P08659 whole entry): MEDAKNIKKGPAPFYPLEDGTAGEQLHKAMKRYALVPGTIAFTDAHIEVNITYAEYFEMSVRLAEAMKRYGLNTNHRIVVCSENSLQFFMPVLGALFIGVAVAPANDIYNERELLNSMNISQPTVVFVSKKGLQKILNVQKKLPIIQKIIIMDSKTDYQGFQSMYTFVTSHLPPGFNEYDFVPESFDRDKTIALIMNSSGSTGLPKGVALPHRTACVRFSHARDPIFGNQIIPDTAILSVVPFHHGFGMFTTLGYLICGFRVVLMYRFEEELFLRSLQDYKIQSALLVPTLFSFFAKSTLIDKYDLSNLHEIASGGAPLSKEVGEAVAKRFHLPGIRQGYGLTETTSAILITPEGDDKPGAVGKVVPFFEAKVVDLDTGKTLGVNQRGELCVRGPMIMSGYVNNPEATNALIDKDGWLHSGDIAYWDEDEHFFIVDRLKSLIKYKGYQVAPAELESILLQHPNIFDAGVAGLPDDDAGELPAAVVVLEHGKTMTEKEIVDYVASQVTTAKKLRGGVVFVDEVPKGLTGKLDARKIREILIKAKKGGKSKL
Sequence of Glucose-6-phosphate 1-dehydrogenase (P11413 whole entry): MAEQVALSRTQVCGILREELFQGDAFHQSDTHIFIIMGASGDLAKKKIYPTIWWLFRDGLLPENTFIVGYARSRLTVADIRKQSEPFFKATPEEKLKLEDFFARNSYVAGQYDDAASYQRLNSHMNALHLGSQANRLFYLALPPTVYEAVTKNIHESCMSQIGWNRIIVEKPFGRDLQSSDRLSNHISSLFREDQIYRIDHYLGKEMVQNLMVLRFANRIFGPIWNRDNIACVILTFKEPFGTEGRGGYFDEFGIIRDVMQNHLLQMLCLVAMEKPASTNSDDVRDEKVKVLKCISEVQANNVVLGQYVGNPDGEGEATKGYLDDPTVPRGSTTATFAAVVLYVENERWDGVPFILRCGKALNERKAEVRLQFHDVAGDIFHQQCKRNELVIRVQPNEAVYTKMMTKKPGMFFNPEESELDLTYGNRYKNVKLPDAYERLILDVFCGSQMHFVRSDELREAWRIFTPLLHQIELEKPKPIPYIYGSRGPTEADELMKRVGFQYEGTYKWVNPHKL
Sequence of Glyceraldehyde-3-phosphate dehydrogenase (P04406 whole entry): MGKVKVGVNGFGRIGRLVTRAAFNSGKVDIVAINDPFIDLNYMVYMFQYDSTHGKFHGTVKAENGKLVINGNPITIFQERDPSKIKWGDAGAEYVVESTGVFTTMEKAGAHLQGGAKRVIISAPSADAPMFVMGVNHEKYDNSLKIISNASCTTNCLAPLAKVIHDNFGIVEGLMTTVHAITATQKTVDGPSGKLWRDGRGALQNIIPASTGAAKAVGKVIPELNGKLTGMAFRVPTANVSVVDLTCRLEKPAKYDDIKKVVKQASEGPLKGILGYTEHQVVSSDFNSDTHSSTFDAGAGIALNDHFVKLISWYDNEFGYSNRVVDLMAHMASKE

COc1ccccc1-c1cc2nc(C)c(CCC(=O)NC(C)CCc3ccco3)c(C)n2n1 (stereo not given)
EC50 [1]: > 50 µM (active)

Cc1ccc(CNc2nc3ccccc3s2)s1
EC50 [2]: 14.4 µM (active)
EC50 (HT-1080): > 50 µM (not active)

Cc1cc(Cl)ccc1OCCCC(=O)N1CCCc2ccccc21
EC50 [1]: > 50 µM (active)

CC(C)c1ccc2oc(-c3ccc(N)cc3)nc2c1
EC50 [2]: 12.3 µM (active)
EC50 (HT-1080): > 50 µM (not active)

O=C(NCC(c1cccnc1)N1CCN(c2ccc(F)cc2)CC1)OCc1ccccc1 (stereo not given)
EC50 (cells): 0.089 µM (active)
EC50 [3]: > 60 µM (not active)
EC50 [4]: < 0.1 µM (active)

CCN1CCCC1CNC(=O)c1cc2cc(F)ccc2[nH]1 (stereo not given)
EC50 [1]: > 50 µM (active)

OC1CCN(Cc2ccc(OCc3ccccc3)cc2)CC1
EC50 (cells): 0.207 µM (active)
EC50 [3]: > 60 µM (not active)
EC50 [4]: < 0.1 µM (active)

CCCCCCC(=O)N(O)C1CC(=O)N(Cc2ccccc2)C1=O (stereo not given)
EC50 [1]: > 50 µM (active)

CC1(C)CC[C@]2(C(=O)O)C(O)C[C@@]3(C)C(=CCC4[C@@]5(C)CCC(O)C(C)(C)C5CC[C@@]43C)C2C1 (stereo not given in full)
AC50 (Cytochrome P450 3A4): 15.8 µM (inconclusive)

CCOc1ccc(OCc2ccc(C(=O)O)o2)cc1
EC50 [2]: 0.36 µM (active)
EC50 (HT-1080): > 50 µM (not active)

O=C(Nc1ccccc1)Oc1cccnc1O
EC50 [1]: > 50 µM (active)

CN(C)CCCN(C(=O)c1ccc(S(=O)(=O)N(C)C)cc1)c1nc2ccc(F)cc2s1
EC50 (cells): 0.012 µM (active)
EC50 [5]: 9.44 µM (active)
EC50 [3]: > 60 µM (not active)
EC50 [4]: < 0.1 µM (active)
EC50 [6]: 5.96 µM (active)

CCCn1c(-c2ccc(F)cc2)nc2c(NCC3CCCN3CC)nc(C)nc21 (stereo not given)
AC50 (Cytochrome P450 3A4): 15.8 µM (inconclusive)

CC(=O)OC1CC2C(C)(C)C(O)CCC2(C)C2CC[C@]3(C)C(=CC(=O)OC3c3ccoc3)C12C (stereo not given in full)
AC50 (Cytochrome P450 3A4): 39.8 µM (inconclusive)

O=C(Nc1ccccc1)C12CC3CC(C1)CC(n1cnc([N+](=O)[O-])n1)(C3)C2
EC50 (cells): 0.06 µM (active)
EC50 [3]: > 60 µM (not active)
EC50 [4]: < 0.1 µM (active)

COc1ccc(NC(=O)c2cc(Br)c(Br)s2)cn1
EC50 [1]: > 50 µM (active)

COc1ccc(CCn2c(NN)nc3c2c(=O)[nH]c(=O)n3C)cc1
IC50 [7]: 50.2 µM (inactive)

O=C(O)c1cccc(C(=O)Nc2cccc(NC(=O)C3CCCO3)c2)c1 (stereo not given)
EC50 [2]: 56.3 µM (active)
IC50 [8]: > 100 µM (not active)
EC50 (HT-1080): > 50 µM (not active)

COc1ccccc1NC(=O)CN1CCN(c2ccccc2)CC1
EC50 [1]: > 50 µM (active)

Cn1c(-c2ccccc2)cnc1SCC(=O)N1CCCCC1
EC50 [2]: 22.8 µM (active)
EC50 [9]: 5.72 µM (active)
AC50 (HEK293): 2.47 µM (active)
EC50 [10]: 3.2 µM (active)
EC50 [11]: 8.1 µM (inconclusive)
EC50 (HT-1080): > 50 µM (not active)

COc1cccc(C(=O)Nc2nnc(C(C)C)s2)c1
IC50 [7]: 52.7 µM (inactive)

Cc1ccc2c(c1)C1CN(C)CCC1N2C(=O)c1ccc(Cl)c(S(=O)(=O)N2CCOCC2)c1 (stereo not given)
EC50 (cells): 0.199 µM (active)
EC50 [3]: > 60 µM (not active)
EC50 [4]: < 0.1 µM (active)

NS(=O)(=O)c1ccc(CCNC(=O)Cc2ccccc2[N+](=O)[O-])cc1
IC50 (Prothrombin): > 50 µM (not active)
IC50 (Coagulation factor XII): > 50 µM (inactive)

COc1ccc(CCn2c(NN=C(C)C)nc3c2c(=O)[nH]c(=O)n3C)cc1
IC50 [7]: 77.8 µM (inactive)

O=C(/C=C(\O)c1ccccc1)c1ccccc1O [2',beta-DIHYDROXYCHALCONE]
AC50 (Cytochrome P450 3A4): 15.8 µM (inconclusive)

COc1ccc(C2CC(=O)c3ccc(OC)cc3O2)cc1 (stereo not given) [LIQUIRITIGENIN DIMETHYL ETHER]
AC50 (Cytochrome P450 3A4): 20 µM (inconclusive)

CC1=C(/C=C/C(C)=C/C=C/C(C)=C/C=O)C(C)(C)CCC1 [RETINAL]
AC50 (Cytochrome P450 3A4): 12.6 µM (inconclusive)

— ChEMBL document CHEMBL1201862, “PubChem BioAssay data set” (2004)
